Converted amounts (≈) assume the structure as drawn.
Experiments:
[1] = test system: P. aeruginosa (ATCC 15442); test: MIC measurement (adapted CLSI M07-A11 broth dilution); type: cell-based; conditions: for MIC: P. aeruginosa (ATCC 15442), MHB, overnight 37° C.
Experimental: (§1) MIC measurements were performed using an adapted method described in the Clinical and Laboratory Standards Institute (CLSI) guidelines M07-A11. Compounds were serial diluted two-fold in Mueller Hinton Broth (MHB) in 96 well plates. A positive growth control and a negative growth control were also included in the well plates.
(§2) A colony suspension of S. aureus (ATCC 29213), P. aeruginosa (ATCC 15442) and C. albican was prepared by taking several colonies from a fresh agar plate and suspending them in MHB. The suspension was adjusted to 0.5 McFarland (~1 × 10^8 CFU/mL) and diluted 1:100. The inoculum was then added to wells at a final concentration of […]. Plates were incubated overnight at 37° C. The following day, MICs were determined as the lowest concentration that no growth could be visually observed.
(§3) An 80 mg/ml solution of T-EDTA was prepared by dissolving T-EDTA (99% pure, Acros Organics) in sterile distilled water. The pH of this solution was measured at 10.5, using a pH electrode. A 16 mg/ml solution of DTPA was prepared by dissolving DTPA (98%+ Acros Organics) in distilled water, and adjusting pH to 10.5 using the addition of sodium hydroxide.

S. aureus (ATCC 29213) = test: as above; type: cell-based; conditions: for MIC: S. aureus (ATCC 29213), MHB, overnight 37° C.
Experimental: as §1, §2, §3

C. albican (ATCC 10231) = test: as above; type: cell-based; conditions: MHB, overnight 37° C.
Experimental: as §1, §2

[2] = Concentration studies: loading of complex in aqueous solution; type: physicochemical
Experimental: 3.29 g silver nitrate was dissolved in 4.71 g demineralised water to produce a silver nitrate solution. 2.58 g copper sulphate pentahydrate was dissolved in 16.09 g demineralised water to produce a copper sulphate solution. Silver nitrate solution was added to the DPTA solution with vigorous stirring. […] Copper sulphate solution was added to the white dispersion.
2.39 g silver nitrate was dissolved in 4.61 g demineralised water to produce a silver nitrate solution. 2.08 g zinc sulphate monohydrate was dissolved in 15.92 g demineralised water to produce a zinc sulphate solution. […] Zinc sulphate solution was added to the white dispersion.
0.24 g silver nitrate (AgNO3) was dissolved in 3.26 g demineralised water to produce a silver nitrate solution. 0.66 g aluminium sulphate hexadecahydrate (Al2H32O28S3) was dissolved in 8.34 g demineralised water to produce an aluminium sulphate solution. […] Aluminium sulphate solution was added to the white dispersion.
Silver nitrate solution was formed by dissolving 0.24 g silver nitrate (AgNO3) in 3.26 g demineralised water.

[3] = clear aqueous solution as prepared

Row | Compound | MIC [1] [µg/mL] | MIC (S. aureus (ATCC 29213)) [µg/mL] | MIC (C. albican (ATCC 10231)) [µg/mL] | theoretical concentration of the complex in solution [2, 3] | theoretical total solids concentration [2, 3] [%] | increase in potency (MIC) compared to uncomplexed T-EDTA ([1]; P. aeruginosa, versus uncomplexed T-EDTA) [fold] | increase in potency (MIC) compared to uncomplexed T-EDTA (S. aureus (ATCC 29213); S. aureus, versus uncomplexed T-EDTA) [fold] | increase in potency (MIC) versus prior art compound Ag2Cu(EDTA) ([1]; P. aeruginosa, versus Ag2Cu(EDTA)) | increase in potency (MIC) versus prior art compound Ag2Cu(EDTA) (S. aureus (ATCC 29213); S. aureus, versus Ag2Cu(EDTA)) | total soluble solids content of the solution ([2]; clear aqueous solution of the complex as prepared) [% w/w]
1 | O=C([O-])CN(CCN(CC(=O)[O-])CC(=O)[O-])CCN(CC(=O)[O-])CC(=O)[O-].[Ag+].[Ag+].[Al+3] [Ag2Al(DTPA)] | 450 | 370 | 530 | 2.9% |  |  |  |  |  | 
2 | O=C([O-])CN(CCN(CC(=O)[O-])CC(=O)[O-])CCN(CC(=O)[O-])CC(=O)[O-].[Ag+].[Ag+].[Bi+3] [Ag2Bi(DTPA), Ag2Bi(DPTA)] | 94 | 190 | 11 | 0.02 mol/kg | 9.7 |  |  |  |  | 
3 | O=C([O-])CN(CCN(CC(=O)[O-])CC(=O)[O-])CC(=O)[O-].[Ag+].[Ag+].[Cu+2] [Ag2Cu(EDTA), reference compound] | 6 | 98 |  |  |  |  |  |  |  | 
4 | O=C(O)CN(CCN(CC(=O)O)CC(=O)O)CCN(CC(=O)O)CC(=O)O [DTPA, diethylenetriaminepentaacetic acid, reference compound] | 2000 (≈ 5.08 mM) | 1000 (≈ 2.54 mM) |  |  |  | 2.5 | 1.25 |  |  | 
5 | Ag3Cu(DTPA) [Ag3Cu(DPTA)] | 1.6 | 6 |  |  |  |  |  | approximately 4 fold | approximately 16 fold | 22.5

Reference: patent US20230312610A1, “Anti-Microbial Compositions” (5D HEALTH PROTECTION GROUP LTD, priority 2020, published 2023)
